A word on the melting point: it is the temperature, or range, at which the solid turns liquid.

Structures can show the parent of a compound that is named as a salt. Bounds are passed on as bounds.

For series [1], the target named is T1, hSK3 channels (Homo sapiens, UniProt Q9UGI6).
T1 construct: expressed in transfected cells; host or cells: HEK293
In words: whole-cell patch-clamp recording of SK3 current in HEK293 cells expressing hSK3 channels. The series is classed as cell-based. The settings on record: current at −75 mV, free Ca2+ 0.3-0.4 μM, room temperature, read-out: Kd value (concentration required for decreasing the baseline current to 50% of the initial current). On the procedure:
The ionic current through small-conductance Ca^2+-activated K^+ channels (SK channels, subtype 3) was recorded using the whole-cell configuration of the patch-clamp technique.
HEK293 tissue culture cells expressing hSK3 channels were grown in DMEM (Dulbecco's Modified Eagle Medium) supplemented with 10% FCS (foetal calf serum) at 37° C. in 5% CO2. At 60-80% confluency, cells were harvested by trypsin treatment and seeded on cover slips.
Cells plated on coverslips were placed in a 15 μl perfusion chamber (flowrate ˜1 ml/min) mounted on an inverted microscope placed on a vibration-free table in a grounded Faraday cage. The experiments were performed at room temperature (20-22° C.). […] Data were stored directly on the hard-disk and analysed by IGOR software (Wavemetrics, Lake Oswega, Oreg., USA).
The whole-cell configuration of the patch-clamp technique was applied. […] Cell capacitance was electronically compensated and the resistance between the pipette and the cell interior (the series resistance, Rs) was measured and compensated for. […]
The intracellular (pipette) solution contained: 154 mM KCl, 10 mM HEPES, 10 mM EGTA. Concentrations of CaCl2 and MgCl2 needed to obtain the desired free concentrations of Ca^2+ (0.3-0.4 μM, Mg^2+ always 1 mM) were calculated by EqCal software (Cambridge, UK) and added. […]
In general terms: In patch-clamp work, channel activity is measured electrically.

Consider `N=C1N(Cc2ccc(F)c(F)c2)Cc2ccccc2N1Cc1ccc(F)c(F)c1` (as salt: salt) [Compound 4, 1,3-Bis-(3,4-difluorobenzyl)-3,4-dihydro-1H-quinazolin-2-ylideneamine], for which the melting point was in the range of 215 to 218 °C.

The compound `N=C1N(Cc2cc(F)c(F)cc2Br)Cc2ccccc2N1Cc1cc(F)c(F)cc1Br` (as salt: salt) [Compound 9, 1,3-Bis-(2-bromo-4,5-difluorobenzyl)-3,4-dihydro-1H-quinazolin-2-ylideneamine] registered a melting point of 220 to 224 °C.

`N=C1N(Cc2ccc(F)c(F)c2)[C@@H]2CCCC[C@H]2N1Cc1ccc(F)c(F)c1` (racemic) (as salt: salt) [Compound 5, (±)-trans-1,3-Bis-(3,4-difluoro-benzyl)octahydro-benzoimidazol-2-ylideneamine] had a melting point of 238 to 240 °C.

For the compound `N=C1N(Cc2ccc(F)c(F)c2)CCCN1Cc1ccc(F)c(F)c1` [Compound 7, 1,3-Bis-(3,4-difluorobenzyl)tetrahydropyrimidin-2-ylideneamine], the Kd in series [1] is under 1000 nM.

As to `COc1ccc(OC(F)(F)F)cc1CN1CCN(Cc2cc(OC(F)(F)F)ccc2OC)C1=N` [Compound 15, 1,3-Bis-(2-methoxy-5-trifluoromethoxybenzyl)imidazolidin-2-ylideneamine], the Kd in series [1] is under 1000 nM.

The values above are taken from patent publication US8048877B2, “Guanidine derivatives and their medical use” (Neurosearch A/S, priority 2006, dated 2011).
